Assay results reported in patent publication US4582827A, “Pesticidal diphenylaziridines” (priority 1983, dated 1986).

Tests used:
[1] = system: Salmonella typhimurium strains TA 98, TA 100, TA 1535, TA 1537, TA 1538, TA 1978; assay: Ames assay (spot test), revertant colonies; assay type: cell-based
Method: This means that aziridine compounds, 1, 10, or 11, will not cause mutations in DNA arising from potential changes in frame shift and/or base pairing. Compounds 1, 10 and 11 were tested for mutagenic properties using the following experimental procedure.
Potential mutagenic and carcinogenic properties of the compounds were evaluated with standard Ames assay procedures (Ames et al, "Mutation Res.", 31, p. 347, 1975). This assay used strains of Salmonella typhimurium selected for sensitivity and specificity in being reverted from a histidine requirement back to prototrophy by a wide variety of mutagens. Potential changes in frameshift were evaluated using strains TA 98, TA 1537 and TA 1538, while changes in base pairing were detected using strains TA 100 and TA 1535. In addition, strain TA 1978 was used, in combination with TA 1538, to evaluate whether the agent killed bacteria by damage to DNA that could be repaired by this strain. Initially, the compounds were screened using the spot test, in which 1000 μgm of material dissolved in 10 μl of DNSO was applied to the middle of the plate.
Dose-response tests were not performed because the results were negative. All the tests were carried out in the presence and absence of an S9 rat liver preparation and contained a positive control (2-acetylaminofluorene,AAF) and a negative control (DMSO).

[2] = system: tobacco hornworm (Manduca sexta) larvae; assay: Tobacco hornworm growth and developmental responses to feeding on diets containing the compounds; assay type: in vivo; conditions: for Total No. of Adults: all tests began with 15 larvae; for mean number of eggs: 4 day old females
Method: The compounds produced and described in Example 1 were then tested for pesticidal activity against the tobacco hornworm (Manduca sexta). The screening procedure for these tests began with the larval stage and continued through the pupal and adult stages and finally evaluated egg production. The studies thus permitted the evaluation of the effects of the compounds over several subsequent developmental stages in the total life cycle of the insect, giving estimates of acute toxicity (insecticidalor larvicidal activity) as well as prolonged or delayed effects on development (growth regulation) and reproduction (chemosterilization). The latter are of special importance in conjunction with the integrated pest management approach to insect control.
The test compounds were incorporated into the artificial diet of tobacco hornworm larvae and their subsequent growth and developmental responses were monitored using the following parameters: larval mortality including determination of LD50 values, rate of larval development and weight gain, percent pupation, pupal weight and degree of deformities, percent adult emergence and measures of reproductive capacity such as the number of developed ooctyes, fecundity and fertility. The protocol for the screening tests has been developed over a number of years by Dahlman et al., Comp. Biochem. Physiol. 51A, 33, (1975); Comp. Biochem. Physiol., 52A, 105 (1975); Ent. Exp. et Appl., 22, 123 (1977); Palumbo and D. L. Dahlman, J. Econ. Entomol. 71, 674 (1978); D. L. Dahlman, Ent. Exp. et Appl., 24, 327 (1978).
Each treatment used 15 newly ecdysed fifth-instar larvae. Death of larvae within a few hours to several days of initial exposure was considered to be acute toxicity. However, the compounds may reduce the maximum size attained by larvae and/or may retard growth so that larvae require additional time to attain their maximum size. Developmental parameters subsequent to the feeding stage also may be affected. […] Mortality may occur in the pupal stage or emerging adults may have wrinkled wings or other deformities. The number of eggs produced by treated females may be reduced and/or unfertile. Although acute toxicity is desirable in the control of any insect, the delayed effects which result in poor survival and reduced reproductive capacity are significant factors in the long-range program of pest management systems.
Continuous cultures of M. sexta are maintained according to the procedures of Yamamoto, J. Econ. Entomol., 62, p. 1427 (1969). Ingredients of the diet formulation include sugar, casein, wheat germ oil, cholesterol, salt mixture, yeast, vitamins, antioxidants and fungal inhibitors, such as ascorbic acid, sorbic acid, formaldehyde and methyl-p-benzoate. All are incorporated into a liquid agar base which, when poured into holding pans, solidifies to form an adequate substrate upon which the insect larvae feed. Nearly any test material can be uniformly incorporated into such a diet. Thus, exposure to experimental compounds can be evaluated during all or any part of the larval stage. In addition, chronic or long-term effects in subsequent life stages can also be monitored.
The results from these studies, in which the 1,2-diphenylaziridines of Example 1 were incorporated singly into the diet of M. sexta at a concentration of 5 mM are presented in the following Table I.

Row | Structure (SMILES) | % Adult Emergence ([2]; 5 mM in diet) | % Malformed Adults ([2]; 5 mM in diet) | % Pupation ([2]; 5 mM in diet) | Days to Max Wt ([2]; 5 mM in diet) | Max Larval Wt ([2]; 5 mM in diet) | Mean No. of Eggs ([2]; 5 mM in diet) | No. of female Adults ([2]; 5 mM in diet) | wrinkled or crumpled wings of moths ([2]; 5 mM in diet) | Total No. of Adults ([2]; 5 mM in diet) | effects on tobacco hornworm development ([2]; summary of Tables I and II) | feeding time required to attain reduced maximum weight ([2]; 5 mM in diet) | larval mortality ([2]; 5 mM in diet) | percent adult emergence ([2]; 5 mM in diet) | percent pupation ([2]; 5 mM in diet) | reduction in the maximum weight of hornworm larvae ([2]; 5 mM in diet) | mean number of eggs ([2]; 5 mM in diet) | other results
1 | CC(=O)Nc1ccc2c(c1)Cc1ccccc1-2 [AAF, 2-acetylaminofluorene, reference compound] |  |  |  |  |  |  |  |  |  |  |  |  |  |  |  |  | Mean number of revertant colonies per plate, TA 98 +S9 ([1]; strain TA 98, +S9): 284.7 colonies per plate; Mean number of revertant colonies per plate, TA 98 -S9 ([1]; strain TA 98, -S9): 32.7 colonies per plate; Mean number of revertant colonies per plate, TA 100 +S9 ([1]; strain TA 100, +S9): 78.0 colonies per plate; Mean number of revertant colonies per plate, TA 100 -S9 ([1]; strain TA 100, -S9): 25.3 colonies per plate; Mean number of revertant colonies per plate, TA 1535 +S9 ([1]; strain TA 1535, +S9): 19.7 colonies per plate; Mean number of revertant colonies per plate, TA 1535 -S9 ([1]; strain TA 1535, -S9): 15.7 colonies per plate; Mean number of revertant colonies per plate, TA 1537 +S9 ([1]; strain TA 1537, +S9): 14.7 colonies per plate; Mean number of revertant colonies per plate, TA 1537 -S9 ([1]; strain TA 1537, -S9): 7.7 colonies per plate; Mean number of revertant colonies per plate, TA 1538 +S9 ([1]; strain TA 1538, +S9): 313.7 colonies per plate; Mean number of revertant colonies per plate, TA 1538 -S9 ([1]; strain TA 1538, -S9): 14.7 colonies per plate; Mean number of revertant colonies per plate, TA 1978 +S9 ([1]; strain TA 1978, +S9): 358.3 colonies per plate; Mean number of revertant colonies per plate, TA 1978 -S9 ([1]; strain TA 1978, -S9): 196.3 colonies per plate
2 | O=[N+]([O-])c1ccccc1C1CN1c1ccc(Cl)c(Cl)c1 (stereo not shown) [Compound 2] | 47% | 71% | 93% | 6.2 ± .1 days | 8.58 ± .31 g | 83 ± 29 | 5 | observed in significant numbers of moths | 7 |  |  |  |  |  |  |  | pupal mortality ([2]; 5 mM in diet): significant pupal mortality; pupal mortality ([2]; summary of Tables I and II): caused pupal mortality
3 | O=[N+]([O-])c1cccc(N2CC2c2ccccc2[N+](=O)[O-])c1 (stereo not shown) [Compound 3] | 80% | 8% | 100% | 5.2 ± .1 days | 9.21 ± .24 g | 97 ± 14 | 9 |  | 12 | had no effect |  |  |  |  |  |  | 
4 | O=[N+]([O-])c1cccc(C2CN2c2ccccc2)c1 (stereo not shown) [Compound 4] | 100% | 7% | 100% | 5.1 ± .1 days | 9.01 ± .17 g | 67 ± 16 | 9 |  | 15 | had no effect |  |  |  |  |  |  | 
5 | Clc1ccccc1C1CN1c1ccccc1 (stereo not shown) [Compound 5] | 40% | 17% | 40% | 7.3 ± 1.4 days | 5.42 ± .42 g | 14 ± 17 | 3 |  | 6 | reduction in maximum larval weight, percent pupation, and mean number of eggs, and an increase in malformed adults | extended the feeding time | significant larval mortality | significantly lower than controls | a reduction in percent pupation | 30-50% | significantly reduced the mean number of eggs | 
6 | Brc1ccc(N2CC2c2ccccc2)cc1 (stereo not shown) [Compound 6] | 47% | 27% | 53% | 9.2 ± .5 days | 4.83 ± .42 g | 7 ± 5 | 5 | observed in significant numbers of moths | 7 | reduction in maximum larval weight, percent pupation, and mean number of eggs, and an increase in malformed adults | extended the feeding time | significant larval mortality | significantly lower than controls | a reduction in percent pupation | 30-50% | significantly reduced the mean number of eggs | 
7 | c1ccc(C2CN2c2ccccc2)cc1 (stereo not shown) [Compound 7, 1,2-diphenylaziridine] | 80% | 0% | 100% | 6.7 ± .2 days | 9.29 ± .17 g | 79 ± 19 | 10 |  | 12 | had no effect |  |  |  |  |  |  | 
8 | Clc1cccc(C2CN2c2ccc(Br)cc2)c1 (stereo not shown) [Compound 8] | 53% | 50% | 60% | 7.8 ± .6 days | 4.84 ± .19 g | 1 ± 0 | 4 | observed in significant numbers of moths | 8 | reduction in maximum larval weight, percent pupation, and mean number of eggs, and an increase in malformed adults | extended the feeding time | significant larval mortality | significantly lower than controls | a reduction in percent pupation | 30-50% | significantly reduced the mean number of eggs | 
9 | Clc1ccc(C2CN2c2ccc(Br)cc2)cc1 (stereo not shown) [Compound 9] | 86% | 15% | 93% | 5.0 ± .0 days | 6.46 ± .23 g | 74 ± 14 | 7 |  | 13 |  |  |  |  |  | 30-50% |  | 
10 | Clc1cccc(N2CC2c2ccccc2Cl)c1 (stereo not shown) [Compound 12] | 47% | 57% | 60% | 7.6 ± .8 days | 5.96 ± .40 g | 8 ± 11 | 2 | observed in significant numbers of moths | 7 | reduction in maximum larval weight, percent pupation, and mean number of eggs, and an increase in malformed adults | extended the feeding time | significant larval mortality | significantly lower than controls | a reduction in percent pupation | 30-50% | significantly reduced the mean number of eggs | 
11 | CCc1ccc(N2CC2c2ccccc2Cl)cc1 (stereo not shown) [Compound 16] | 80% | 20% | 87% | 5.5 ± .2 days | 7.48 ± .31 g | 44 | 4 |  | 12 |  |  |  |  |  |  |  | 
